The assay deals with T1, PKC-ε (Mus musculus, UniProt P16054).
T1 construct: from tissue; host or cells: brain of C57B/6 male mice
T1 sequence (P16054 1-737): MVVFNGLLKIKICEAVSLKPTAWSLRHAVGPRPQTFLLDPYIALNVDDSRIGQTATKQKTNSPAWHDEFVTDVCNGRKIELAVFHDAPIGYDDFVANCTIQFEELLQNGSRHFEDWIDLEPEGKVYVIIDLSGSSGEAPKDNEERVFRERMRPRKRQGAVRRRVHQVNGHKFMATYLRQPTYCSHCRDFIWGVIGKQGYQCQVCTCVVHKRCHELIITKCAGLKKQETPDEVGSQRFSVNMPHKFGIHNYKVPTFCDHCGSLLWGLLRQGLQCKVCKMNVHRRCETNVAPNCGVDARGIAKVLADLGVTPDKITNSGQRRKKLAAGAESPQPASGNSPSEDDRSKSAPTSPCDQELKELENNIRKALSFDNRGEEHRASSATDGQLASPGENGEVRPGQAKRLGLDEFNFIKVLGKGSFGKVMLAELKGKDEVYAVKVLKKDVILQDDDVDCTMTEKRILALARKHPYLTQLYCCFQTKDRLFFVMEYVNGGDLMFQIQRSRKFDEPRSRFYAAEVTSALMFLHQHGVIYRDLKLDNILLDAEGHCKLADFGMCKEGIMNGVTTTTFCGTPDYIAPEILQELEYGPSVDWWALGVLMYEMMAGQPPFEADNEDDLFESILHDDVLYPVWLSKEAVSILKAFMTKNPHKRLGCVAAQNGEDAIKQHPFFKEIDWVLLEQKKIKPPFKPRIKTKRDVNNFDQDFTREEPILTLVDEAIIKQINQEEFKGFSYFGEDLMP
Description: Total PKC (PKC-ε) level / downregulation in brain after i.v. bryostatin dosing regimens. It is filed as in vivo. Conditions: mice. As to the method: FIGS. […] (A) Downregulation of brain PKCε in mice after intravenous administration of bryostatin at doses of 10 μg/m^2, 15 μg/m^2, and 25 μg/m^2 for 1-6 consecutive weeks. (B) Downregulation of brain PKCε in mice after intravenous administration of bryostatin at two different doses (i) 2×25+2 μg/m^2, and (ii) 25 μg/m^2. Dosing regimen is disclosed along the abscissa.
Mouse studies were performed using bryostatin-i in accordance with the protocol described below. The following metrics were used to evaluate dosing regimens: induction of brain postsynaptic anchoring protein PSD-95, upregulation of BDNF levels in brain, minimal downregulation of PKC-ε levels, and elevation of brain and plasma concentrations of bryostatin. Groups of 2-3 mice were formed and housed in an approved research animal facility. Water was give ad libitum. A first study involved three groups of mice with animals in each group dosed weekly for 1, 2, 3, or 6 consecutive weeks. Each group had its own control group containing the same number of mice. In this study, mice in the first, second and third groups received an intravenous (i.v.) injection of 10 μg/m^2, 15 μg/m^2, and 25 μg/m^2 dose of bryostatin respectively. For each dose, mice in that group received a single injection of bryostatin weekly for predetermined number of consecutive weeks. Following dosing, mice were sacrificed and the blood and brain of each animal was collected for further analysis.
Cells were harvested in homogenizing buffer containing 10 mM Tris-Cl (pH 7.4), 1 mM PMSF (phenylmethylsulfonyl fluoride), 1 mM EGTA, 1 mM EDTA. 50 mM NaF, and 20 μM leupeptin and were lysed by sonication. The homogenate was centrifuged at 100,000×g for 15 min at 4° C. to obtain the cytosolic fraction (supernatant) and membrane (pellet). The pellet was resuspended in the homogenizing buffer by sonication. Protein concentration was measured using the Coomassie Plus (Bradford) Protein Assay kit (Pierce, USA). Following quantification, 20 μg of protein from each sample was subjected to SDS-PAGE analysis in 4-20% gradient Tris-Glycine gel (Invitrogen, USA). The separated protein was then transferred to nitrocellulose membrane. The membrane was blocked with BSA at room temperature for 15 min and was incubated with primary antibody over night at 4° C. After the incubation, it was washed three times with TBS-T (Tris Buffered saline-Tween 20) and further incubated with alkaline phosphatase conjugated secondary antibody (Jackson Immunoresearch Laboratories. USA) at 1:10,000 dilution for 45 min. The membrane was finally washed three times with TBS-T and developed using the 1-step NBT-BCIP substrate (Pierce, USA). Western Blot was imaged in the Image Quant RT-ECL (GE Life Sciences, Piscataway, N.J.) and densitometric quantification was performed using the IMAL software (Blanchette Rockefeller Neurosciences institute, Morgantown, W. Va.). For translocation assays, PKC activation was represented as the percentage of total protein in the membrane (membrane/cytosol+membrane). […]
C57B/6 male mice weighing between 19-21 grams were obtained from Charles River and housed in cages, 1 mouse/cage in a vivarium at the Blanchette Rockefeller Neurosciences institute. Animals were allowed access to water ad libitum.
In these studies, bryostatin was administered intravenously (i.v.) by injection into the tail vein of a mouse. Stock solutions of bryostatin were prepared in dimethyl sulfoxide (DMSO). Prior to administration to a mouse, the stock DMSO solution of bryostatin was diluted to a predetermined concentration by dilution with phosphate buffered saline/saline (PBS/saline).
Three different dosing regimens (injection schedules) were compared. The dosing regimens tested were weekly dosing, dosing every other week (alternating weeks), and spaced or intermittent dosing. […]

As to `CCC/C=C/C=C/C(=O)O[C@H]1/C(=C/C(=O)OC)C[C@H]2C[C@H]([C@@H](C)O)OC(=O)C[C@H](O)C[C@@H]3C[C@H](OC(C)=O)C(C)(C)[C@](O)(C[C@@H]4C/C(=C/C(=O)OC)C[C@H](/C=C/C(C)(C)[C@]1(O)O2)O4)O3` [Bryostatin-1], the “PKC-ε downregulation” value is reported as “appeared to result in downregulation” (10 μg/m^2 weekly, total of 6 consecutive weeks); “additional downregulation occurred” (25 μg/m^2, continued dosing, 1 on/1 off and 2 on/1 off regimens). Further, the “PKC downregulation” value (25 μg/m^2, rest intervals increased to three weeks (3 on/3 off)) is “significantly reduced PKC downregulation”. Where the note is “25 μg/m^2, three consecutive weekly doses, versus lower doses”, the “PKC-ε downregulation in brain” value was “did not produce more PKC-ε downregulation”. For the same molecule, the “PKC (% of Control), total PKC level” value is given as 84.841 % of Control (cage 4: 25 μg/m^2 i.v. once weekly, 3 weeks, 24 h); 78.2 % of Control (cage 5: 25 μg/m^2 i.v., 3 on/3 off/3 on (9 weeks), 24 h); 95.197 % of Control (cage 6: 10 μg/m^2 i.v. once weekly, 3 weeks, 24 h); 80.441 % of Control (cage 8: 10 μg/m^2 i.v. once weekly, 6 weeks, 24 h); 63.02 % of Control (cage 9: 25 μg/m^2 i.v., alternating, weeks 1 and 3, 24 h); 59.11 % of Control (cage 10: 25 μg/m^2 i.v., alternating, weeks 1, 3, 5, 7, 9, 24 h). Besides, the “PKC (% of Control), total PKC level” value (cage 11: 25 μg/m^2 i.v., weeks 1 and 2, collection week 3 (7 d delay)) is 56.7 % of Control; the “PKC (% of Control), total PKC level” value (cage 12: 25/20 μg/m^2 i.v., injections weeks 1, 2, 4, 6, 8, collection week 9 (7 d delay)) is 49.92 % of Control; the “PKC (% of Control), total PKC level” value (cage 18: 15 μg/m^2 i.v. once weekly, 3 weeks, 24 h) is 66.430 % of Control; the “PKC (% of Control), total PKC level” value (cage 22 (regimen not listed in Tables 2/3)) was 89.206 % of Control; the “PKC (% of Control), total PKC level” value (cage 24: 25 μg/m^2 i.v. once weekly, 2 weeks, 24 h) is recorded as 96.723 % of Control.

These data come from patent publication US11173140B2, “Dosing regimens of PKC activators” (COGNITIVE RESEARCH ENTERPRISES, INC., priority 2015, dated 2021).
